Data set [1] can be described thus: H+/Na+ transport assay of bead-derived peptides (one-point).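 Note: relative to parent gramicidin A activity set to 1.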 Type of data set: biochemical. Details: key: relative activity; mean of two control wells = 1.00. Particulars: bead-derived peptide solution, EYPC/EYPG LUVs. In short, it runs like this:
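Miniaturized 96-well format. LUVs with entrapped pyranine (1.0 mM) were exposed to peptide for 30 min at RT. Intensities were expressed relative to full lysis by Triton X-100 and no treatment, with control-well mean = 1.00.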

For data set [2] the following is noted: cell viability/%. In short, it runs like this:
(§1)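 P388 cells at 1 × 10^4 cells/mL (final) were exposed to library peptides (stocks diluted 250-fold in RPMI1640/10% FBS) for 92 h at 37 °C, 5% CO2. Viable cells were counted by WST-1/1-methoxy PMS (4 h), absorbance 415 nm, and expressed as cell viability (%).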

Data set [3] deals with Streptococcus pyogenes SSI-9. Briefly: Antibacterial activity assay of bead-derived peptides (three concentrations). Type of data set: cell-based. Details: key: +++: inhibition by the 640-fold diluted peptide solution; ++: inhibition by the 160-fold diluted solution; +: inhibition by the 40-fold diluted solution; -: no inhibition. Particulars: S. pyogenes, bead-derived peptide solution, three concentrations. In short, it runs like this: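 Undiluted, 4-fold and 16-fold DMSO-diluted peptide stocks; S. pyogenes SSI-9, 2 × 10^5 CFU, cation-adjusted MHB (50 mg/L Ca2+, 25 mg/L Mg2+) + 5% laked horse blood; 37 °C, 18 h; readout = cell pellet visible or not.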

For data set [4], the system named is P388 mouse leukemia cells. Particulars: 92 h. In short, it runs like this: as §1

One may read the viability as a per cent measure of how many cells are alive, often set against a control.

Where a SMILES comes first, the peptide text is derived from it. [ ]: non-standard residue; d: D form. The star is where a group is joined. NHCH2CH2OH = OCCN*; For = O=C*

Regarding `CC(C)C[C@@H](NC(=O)[C@H](C)NC(=O)CNC(=O)[C@@H](NC=O)C(C)C)C(=O)N[C@@H](C)C(=O)N[C@H](CC(C)C)C(=O)N[C@H](C(=O)N[C@@H](C(=O)N[C@@H](Cc1c[nH]c2ccccc12)C(=O)N[C@H](CC(C)C)C(=O)N[C@@H](Cc1c[nH]c2ccccc12)C(=O)N[C@@H](C(=O)N[C@@H](Cc1c[nH]c2ccccc12)C(=O)N[C@@H](C(=O)N[C@@H](Cc1c[nH]c2ccccc12)C(=O)NCCO)C(C)C)[C@H](C)O)C(C)C)C(C)C` [compound 65] (For-VGA[dL]A[dL]V[dV]W[dL]W[dT]W[dV]W-NHCH2CH2OH), the “H+/Na+ transport activity normalized against the value of 1 (1.00)” value (from here on “H+/Na+ transport activity normalized”) in data set [1] came to 1.08. In data set [2], the viability turned out to be 100%. Moreover, the antibacterial activity entry in data set [3] is given as “+”.
As for `CC(C)C[C@@H](NC(=O)[C@H](Cc1c[nH]c2ccccc12)NC(=O)[C@@H](CC(C)C)NC(=O)[C@@H](NC(=O)[C@H](NC(=O)[C@H](C)NC(=O)[C@H](NC(=O)[C@H](C)NC(=O)CNC(=O)[C@@H](NC=O)C(C)C)C(C)C)C(C)C)C(C)C)C(=O)N[C@@H](Cc1c[nH]c2ccccc12)C(=O)N[C@@H](C(=O)N[C@@H](Cc1c[nH]c2ccccc12)C(=O)N[C@@H](C(=O)N[C@@H](Cc1c[nH]c2ccccc12)C(=O)NCCO)C(C)C)[C@H](C)O` [compound 79] (For-VGA[dV]A[dV]V[dL]W[dL]W[dT]W[dV]W-NHCH2CH2OH), the “H+/Na+ transport activity normalized” value in data set [1] was 1.14. In addition, the viability in data set [2] was 100%. Also, the antibacterial activity result in data set [3] is “++”.
For `CC(C)C[C@@H](NC(=O)[C@H](C)NC(=O)CNC(=O)[C@@H](NC=O)C(C)C)C(=O)N[C@@H](C)C(=O)N[C@@H](C(=O)N[C@H](C(=O)N[C@@H](C(=O)N[C@@H](Cc1c[nH]c2ccccc12)C(=O)N[C@H](CC(C)C)C(=O)N[C@@H](Cc1c[nH]c2ccccc12)C(=O)N[C@@H](C(=O)N[C@@H](Cc1c[nH]c2ccccc12)C(=O)N[C@@H](C(=O)N[C@@H](Cc1c[nH]c2ccccc12)C(=O)NCCO)C(C)C)[C@H](C)O)C(C)C)C(C)C)C(C)C` [compound 87] (For-VGA[dL]A[dV]V[dV]W[dL]W[dT]W[dV]W-NHCH2CH2OH), in that order: 1.12, 100% and “++”.
In the case of `CC(C)C[C@@H](NC(=O)[C@H](Cc1c[nH]c2ccccc12)NC(=O)[C@@H](CC(C)C)NC(=O)[C@@H](NC(=O)[C@H](NC(=O)[C@H](C)NC(=O)[C@H](NC(=O)[C@H](C)NC(=O)CNC(=O)[C@@H](NC=O)C(C)C)C(C)C)C(C)C)C(C)C)C(=O)N[C@@H](Cc1c[nH]c2ccccc12)C(=O)N[C@@H](C(=O)N[C@@H](Cc1c[nH]c2ccccc12)C(=O)N[C@@H](C(=O)N[C@@H](Cc1c[nH]c2ccccc12)C(=O)NCCO)C(C)C)C(C)C` [compound 100] (For-VGA[dV]A[dV]V[dL]W[dL]W[dV]W[dV]W-NHCH2CH2OH), the “H+/Na+ transport activity normalized” value in data set [1] worked out at 1.18. This molecule showed a viability in data set [2] of 9.5%. In addition, the antibacterial activity entry in data set [3] was “++”.
On to `CC(C)C[C@@H](NC(=O)[C@H](C)NC(=O)[C@H](NC(=O)[C@H](C)NC(=O)CNC(=O)[C@@H](NC=O)C(C)C)[C@H](C)O)C(=O)N[C@H](C(=O)N[C@H](CC(C)C)C(=O)N[C@@H](Cc1c[nH]c2ccccc12)C(=O)N[C@@H](C(=O)N[C@@H](Cc1c[nH]c2ccccc12)C(=O)N[C@H](CC(C)C)C(=O)N[C@@H](Cc1c[nH]c2ccccc12)C(=O)N[C@@H](C(=O)N[C@@H](Cc1c[nH]c2ccccc12)C(=O)NCCO)C(C)C)C(C)C)C(C)C` [compound 102] (For-VGA[dT]A[dL]V[dL]W[dV]W[dL]W[dV]W-NHCH2CH2OH), for which the “H+/Na+ transport activity normalized” value in data set [1] is reported as 1.09. Besides, the viability in data set [2] was 100%. The antibacterial activity result in data set [3] is recorded as “-”.
Turning to `CC(C)C[C@@H](NC(=O)[C@H](C)NC(=O)CNC(=O)[C@@H](NC=O)C(C)C)C(=O)N[C@@H](C)C(=O)N[C@H](CC(C)C)C(=O)N[C@H](C(=O)N[C@@H](C(=O)N[C@@H](Cc1c[nH]c2ccccc12)C(=O)N[C@@H](C(=O)N[C@@H](Cc1c[nH]c2ccccc12)C(=O)N[C@@H](C(=O)N[C@@H](Cc1c[nH]c2ccccc12)C(=O)N[C@@H](C(=O)N[C@@H](Cc1c[nH]c2ccccc12)C(=O)NCCO)C(C)C)C(C)C)C(C)C)C(C)C)C(C)C` [compound 13128] (For-VGA[dL]A[dL]V[dV]W[dV]W[dV]W[dV]W-NHCH2CH2OH), the “H+/Na+ transport activity normalized” value in data set [1] is reported as 1.24. This molecule registered a cell viability/% in data set [4] of 100.0%. For the same molecule, the antibacterial activity result in data set [3] was “+”.
On the same counts, the results for `CC(C)C[C@@H](NC(=O)[C@H](C)NC(=O)[C@H](NC(=O)[C@H](C)NC(=O)CNC(=O)[C@@H](NC=O)C(C)C)C(C)C)C(=O)N[C@H](C(=O)N[C@H](CC(C)C)C(=O)N[C@@H](Cc1c[nH]c2ccccc12)C(=O)N[C@@H](C(=O)N[C@@H](Cc1c[nH]c2ccccc12)C(=O)N[C@@H](C(=O)N[C@@H](Cc1c[nH]c2ccccc12)C(=O)N[C@@H](C(=O)N[C@@H](Cc1c[nH]c2ccccc12)C(=O)NCCO)[C@H](C)O)C(C)C)C(C)C)C(C)C` [compound 13147] (For-VGA[dV]A[dL]V[dL]W[dV]W[dV]W[dT]W-NHCH2CH2OH) are 1.09, 94.4% and “-”.
For the molecule `CC(C)C[C@@H](NC(=O)[C@H](C)NC(=O)[C@H](NC(=O)[C@H](C)NC(=O)CNC(=O)[C@@H](NC=O)C(C)C)C(C)C)C(=O)N[C@H](C(=O)N[C@@H](C(=O)N[C@@H](Cc1c[nH]c2ccccc12)C(=O)N[C@@H](C(=O)N[C@@H](Cc1c[nH]c2ccccc12)C(=O)N[C@H](CC(C)C)C(=O)N[C@@H](Cc1c[nH]c2ccccc12)C(=O)N[C@@H](C(=O)N[C@@H](Cc1c[nH]c2ccccc12)C(=O)NCCO)C(C)C)C(C)C)[C@H](C)O)C(C)C` [compound 13174] (For-VGA[dV]A[dL]V[dT]W[dV]W[dL]W[dV]W-NHCH2CH2OH), the “H+/Na+ transport activity normalized” value in data set [1] is listed as 1.18. The cell viability/% in data set [4] is on record as 100.0%. Also, the antibacterial activity entry in data set [3] is given as “-”.
For `CC(C)C[C@@H](NC(=O)[C@H](C)NC(=O)CNC(=O)[C@@H](NC=O)C(C)C)C(=O)N[C@@H](C)C(=O)N[C@@H](C(=O)N[C@H](C(=O)N[C@H](CC(C)C)C(=O)N[C@@H](Cc1c[nH]c2ccccc12)C(=O)N[C@H](CC(C)C)C(=O)N[C@@H](Cc1c[nH]c2ccccc12)C(=O)N[C@@H](C(=O)N[C@@H](Cc1c[nH]c2ccccc12)C(=O)N[C@H](CC(C)C)C(=O)N[C@@H](Cc1c[nH]c2ccccc12)C(=O)NCCO)C(C)C)C(C)C)C(C)C` [compound 13252] (For-VGA[dL]A[dV]V[dL]W[dL]W[dV]W[dL]W-NHCH2CH2OH), the “H+/Na+ transport activity normalized” value in data set [1] was 1.14. Also, the cell viability/% in data set [4] amounted to 2.6%. For the same molecule, the antibacterial activity result in data set [3] is listed as “-”.
Turning to `CC(C)C[C@@H](NC(=O)[C@H](C)NC(=O)CNC(=O)[C@@H](NC=O)C(C)C)C(=O)N[C@@H](C)C(=O)N[C@@H](C(=O)N[C@H](C(=O)N[C@@H](C(=O)N[C@@H](Cc1c[nH]c2ccccc12)C(=O)N[C@H](CC(C)C)C(=O)N[C@@H](Cc1c[nH]c2ccccc12)C(=O)N[C@H](CC(C)C)C(=O)N[C@@H](Cc1c[nH]c2ccccc12)C(=O)N[C@@H](C(=O)N[C@@H](Cc1c[nH]c2ccccc12)C(=O)NCCO)C(C)C)[C@H](C)O)C(C)C)C(C)C` [compound 13268] (For-VGA[dL]A[dV]V[dT]W[dL]W[dL]W[dV]W-NHCH2CH2OH), the “H+/Na+ transport activity normalized” value in data set [1] is reported as 1.03. The molecule also gave a cell viability/% in data set [4] of 100.0%. In data set [3], the antibacterial activity entry is “+”.
Take `CC(C)C[C@@H](NC(=O)[C@H](C)NC(=O)CNC(=O)[C@@H](NC=O)C(C)C)C(=O)N[C@@H](C)C(=O)N[C@H](CC(C)C)C(=O)N[C@H](C(=O)N[C@@H](C(=O)N[C@@H](Cc1c[nH]c2ccccc12)C(=O)N[C@H](CC(C)C)C(=O)N[C@@H](Cc1c[nH]c2ccccc12)C(=O)N[C@@H](C(=O)N[C@@H](Cc1c[nH]c2ccccc12)C(=O)N[C@@H](C(=O)N[C@@H](Cc1c[nH]c2ccccc12)C(=O)NCCO)C(C)C)[C@H](C)O)C(C)C)C(C)C` [compound 13273] (For-VGA[dL]A[dL]V[dV]W[dL]W[dT]W[dV]W-NHCH2CH2OH): in data set [1], the “H+/Na+ transport activity normalized” value came out at 1.05. For the same molecule, in data set [4], the cell viability/% came out at 100.0%. For the same molecule, the antibacterial activity entry in data set [3] is “-”.
With `CNC(=O)C[C@@H](NC(=O)[C@H](Cc1c[nH]c2ccccc12)NC(=O)[C@@H](CC(C)C)NC(=O)[C@H](Cc1c[nH]c2ccccc12)NC(=O)[C@H](NC(=O)[C@H](Cc1c[nH]c2ccccc12)NC(=O)[C@H](NC(=O)[C@@H](NC(=O)[C@@H](CC(C)C)NC(=O)[C@H](C)NC(=O)[C@H](NC(=O)[C@H](C)NC(=O)CNC(=O)[C@@H](NC=O)C(C)C)C(C)C)C(C)C)C(C)C)C(C)C)C(=O)N[C@@H](Cc1c[nH]c2ccccc12)C(=O)NCCO` [compound 13317] (For-VGA[dV]A[dL]V[dV]W[dV]W[dL]W[dD](NHMe)W-NHCH2CH2OH), in data set [1], the “H+/Na+ transport activity normalized” value turned out to be 1.04. In data set [4], this molecule displayed a cell viability/% of 100.0%. Also, in data set [3], the antibacterial activity result is listed as “-”.

These data come from article PMC7531004, “Discovery of gramicidin A analogues with altered activities by multidimensional screening of a one-bead-one-compound library” (Nature Communications, 2020).
